Experimental data published in US20070092558A1, “Methods of Preparing Targeted Immunoliposomes” (priority 2005, published 2007).

Columns and labels:
[1] = tested on: A431 (epidermoid cancer cells); conditions: 0-18 μg/ml [DOX], 1-hour treatment, 72-hour incubation, FIG. 3B
[2] = tested on: MD-MBA 231 (breast cancer cells); experiment: cytotoxicity assay (ATPlite luminescence), 1 h treatment then 72 h incubation; conditions: MD-MBA 231 cells, 0-18 μg/ml [DOX], FIG. 3A

## COc1cccc2c1C(=O)c1c(O)c3c(c(O)c1C2=O)C[C@@](O)(C(=O)CO)C[C@@H]3O[C@H]1C[C@H](N)[C@H](O)[C@H](C)O1 [free doxorubicin, doxorubicin]
[1]
  cytotoxicity (cell viability): concentration effects on cell viability
[2]
  cytotoxicity (cell viability): concentration effects on cell viability
